Common to all, as to test: relative viability (nuclei count vs DMSO), 5 days (fraction); higher = more cells survive
Compound in experiment [1]: CC(C)C[C@H](NC(=O)[C@H](CCc1ccccc1)NC(=O)CN1CCOCC1)C(=O)N[C@@H](Cc1ccccc1)C(=O)N[C@@H](CC(C)C)C(=O)[C@@]1(C)CO1 [Carfilzomib] + CC(=O)c1c(C)c2cnc(Nc3ccc(N4CCNCC4)cn3)nc2n(C2CCCC2)c1=O [Palbociclib] (partner 0.5 µM)
Summed up:
(§1)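 One day after seeding in 1536-well plates, lung cancer cell lines were dosed by pin tool. Dosing was either single-drug or a fixed anchor-drug dose plus five library-drug doses (not always all listed) in √10 steps. After 5 days, nuclei were stained in one fix-and-stain step and counted on 4× images, and relative viability is the nuclei count of treated wells over that of vehicle wells, given as the median of duplicate plates.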

Compound in experiment [2]: O=C(c1cc(Cc2n[nH]c(=O)c3ccccc23)ccc1F)N1CCN(C(=O)C2CC2)CC1 [Olaparib] + CC(=O)Nc1cccc(-n2c(=O)n(C3CC3)c(=O)c3c(Nc4ccc(I)cc4F)n(C)c(=O)c(C)c32)c1 [Trametinib] (partner 0.02 µM)
Summed up:
as §1

Compound in experiment [3]: O=C(c1cc(Cc2n[nH]c(=O)c3ccccc23)ccc1F)N1CCN(C(=O)C2CC2)CC1 [Olaparib] + Cc1nc(NC(=O)N2CCC[C@H]2C(N)=O)sc1-c1ccnc(C(C)(C)C(F)(F)F)c1 [Alpelisib] (partner 2 µM)
The method in brief: as §1

Compound in experiment [4]: CC(C)C[C@H](NC(=O)[C@H](CCc1ccccc1)NC(=O)CN1CCOCC1)C(=O)N[C@@H](Cc1ccccc1)C(=O)N[C@@H](CC(C)C)C(=O)[C@@]1(C)CO1 [Carfilzomib] + CS(=O)(=O)N1CCN(Cc2cc3nc(-c4cccc5[nH]ncc45)nc(N4CCOCC4)c3s2)CC1 [Pictilisib] (partner 1 µM)
Summed up:
as §1

With NCI-H1355, the relative viability was found to be 0.41 in experiment [1] (first compound 0.001 µM); 0.419 in experiment [1] (first compound 0.003162 µM); 0.432 in experiment [1] (first compound 0.01 µM); 0.422 in experiment [1] (first compound 0.03162 µM); 0.139 in experiment [1] (first compound 0.1 µM); 0.385 in experiment [2] (first compound 0.08 µM). Moreover, the relative viability in experiment [2] (first compound 0.253 µM) came out at 0.433; in experiment [2] (first compound 2.53 µM), 0.481; in experiment [2] (first compound 8 µM), 0.476; in experiment [3] (first compound 0.08 µM), 0.804; in experiment [3] (first compound 0.253 µM), 0.716; in experiment [3] (first compound 2.53 µM) it was 0.825. In addition, the relative viability was 0.798 in experiment [3] (first compound 8 µM); 0.404 in experiment [4] (first compound 0.001 µM); 0.6 in experiment [4] (first compound 0.003162 µM); 0.396 in experiment [4] (first compound 0.01 µM); 0.219 in experiment [4] (first compound 0.03162 µM); 0.145 in experiment [4] (first compound 0.1 µM).

NCI-H1395: the relative viability turned out to be 0.676 in experiment [1] (first compound 0.003162 µM); 0.635 in experiment [1] (first compound 0.01 µM); 0.497 in experiment [1] (first compound 0.03162 µM); 0.31 in experiment [1] (first compound 0.1 µM); 1.11 in experiment [2] (first compound 0.08 µM); 0.876 in experiment [2] (first compound 0.253 µM). In addition, the relative viability in experiment [2] (first compound 2.53 µM) was found to be 0.852; in experiment [2] (first compound 8 µM), 0.629; in experiment [3] (first compound 0.08 µM), 1; in experiment [3] (first compound 0.253 µM), 0.748; in experiment [3] (first compound 2.53 µM), 0.662; in experiment [3] (first compound 8 µM), 0.504. For the same cell line, the relative viability in experiment [4] (first compound 0.001 µM) came to 0.564; in experiment [4] (first compound 0.003162 µM), 0.644; in experiment [4] (first compound 0.01 µM) it was 0.593; in experiment [4] (first compound 0.03162 µM), 0.479; in experiment [4] (first compound 0.1 µM), 0.525.

Regarding NCI-H1437, the relative viability turned out to be 0.318 in experiment [1] (first compound 0.001 µM); 0.329 in experiment [1] (first compound 0.003162 µM); 0.415 in experiment [1] (first compound 0.01 µM); 0.296 in experiment [1] (first compound 0.03162 µM); 0.213 in experiment [1] (first compound 0.1 µM); 0.535 in experiment [2] (first compound 0.08 µM). The relative viability in experiment [2] (first compound 0.253 µM) is 0.469; in experiment [2] (first compound 2.53 µM), 0.503; in experiment [2] (first compound 8 µM) it was 0.504; in experiment [3] (first compound 0.08 µM), 0.987; in experiment [3] (first compound 0.253 µM) it was 0.987; in experiment [3] (first compound 2.53 µM) it was 0.929. The relative viability in experiment [3] (first compound 8 µM) came to 0.764; in experiment [4] (first compound 0.001 µM) it was 0.313; in experiment [4] (first compound 0.003162 µM), 0.463; in experiment [4] (first compound 0.01 µM) it was 0.41; in experiment [4] (first compound 0.03162 µM) it was 0.322; in experiment [4] (first compound 0.1 µM), 0.0975.

In the case of NCI-H1651, the relative viability is 0.521 in experiment [1] (first compound 0.001 µM); 0.549 in experiment [1] (first compound 0.003162 µM); 0.485 in experiment [1] (first compound 0.01 µM); 0.151 in experiment [1] (first compound 0.03162 µM); 0.0991 in experiment [1] (first compound 0.1 µM); 0.849 in experiment [2] (first compound 0.08 µM). In addition, the relative viability in experiment [2] (first compound 0.253 µM) was 0.75; in experiment [2] (first compound 2.53 µM), 0.642; in experiment [2] (first compound 8 µM), 0.504; in experiment [3] (first compound 0.08 µM) it was 0.927; in experiment [3] (first compound 0.253 µM), 0.869; in experiment [3] (first compound 2.53 µM) it was 0.714. Also, the relative viability in experiment [3] (first compound 8 µM) came out at 0.356; in experiment [4] (first compound 0.001 µM), 0.551; in experiment [4] (first compound 0.003162 µM) it was 0.601; in experiment [4] (first compound 0.01 µM), 0.231; in experiment [4] (first compound 0.03162 µM), 0.0999; in experiment [4] (first compound 0.1 µM), 0.0685.

Regarding NCI-H1666, the relative viability in experiment [1] (first compound 0.001 µM) stood at 0.674; in experiment [1] (first compound 0.003162 µM) it was 0.67; in experiment [1] (first compound 0.01 µM), 0.651; in experiment [1] (first compound 0.03162 µM), 0.615; in experiment [1] (first compound 0.1 µM), 0.488; in experiment [2] (first compound 0.08 µM) it was 0.872. Also, the relative viability is 0.95 in experiment [2] (first compound 0.253 µM); 0.791 in experiment [2] (first compound 2.53 µM); 0.765 in experiment [2] (first compound 8 µM); 1.01 in experiment [3] (first compound 0.08 µM); 0.945 in experiment [3] (first compound 0.253 µM); 0.844 in experiment [3] (first compound 2.53 µM). Besides, the relative viability in experiment [3] (first compound 8 µM) worked out at 0.676; in experiment [4] (first compound 0.001 µM), 0.536; in experiment [4] (first compound 0.003162 µM), 0.676; in experiment [4] (first compound 0.01 µM), 0.586; in experiment [4] (first compound 0.03162 µM), 0.422; in experiment [4] (first compound 0.1 µM), 0.228.

Regarding NCI-H1734, the relative viability was determined as 0.346 in experiment [1] (first compound 0.001 µM); 0.382 in experiment [1] (first compound 0.003162 µM); 0.354 in experiment [1] (first compound 0.01 µM); 0.315 in experiment [1] (first compound 0.03162 µM); 0.105 in experiment [1] (first compound 0.1 µM); 0.688 in experiment [2] (first compound 0.08 µM). Also, the relative viability in experiment [2] (first compound 0.253 µM) came to 0.583; in experiment [2] (first compound 2.53 µM) it was 0.718; in experiment [2] (first compound 8 µM), 0.565; in experiment [3] (first compound 0.08 µM), 0.669; in experiment [3] (first compound 0.253 µM), 0.612; in experiment [3] (first compound 2.53 µM), 0.623. For the same cell line, the relative viability in experiment [3] (first compound 8 µM) turned out to be 0.519; in experiment [4] (first compound 0.001 µM) it was 0.476; in experiment [4] (first compound 0.003162 µM), 0.501; in experiment [4] (first compound 0.01 µM) it was 0.389; in experiment [4] (first compound 0.03162 µM), 0.234; in experiment [4] (first compound 0.1 µM), 0.127.

Turning to NCI-H1755, the relative viability in experiment [1] (first compound 0.001 µM) came out at 0.465; in experiment [1] (first compound 0.003162 µM), 0.458; in experiment [1] (first compound 0.01 µM) it was 0.461; in experiment [1] (first compound 0.03162 µM) it was 0.408; in experiment [1] (first compound 0.1 µM) it was 0.293; in experiment [2] (first compound 0.08 µM), 0.728. The relative viability in experiment [2] (first compound 0.253 µM) was 0.738; in experiment [2] (first compound 2.53 µM) it was 0.784; in experiment [2] (first compound 8 µM) it was 0.725; in experiment [3] (first compound 0.08 µM), 1.05; in experiment [3] (first compound 0.253 µM) it was 0.867; in experiment [3] (first compound 2.53 µM), 0.898. The relative viability in experiment [3] (first compound 8 µM) turned out to be 0.841; in experiment [4] (first compound 0.001 µM), 0.412; in experiment [4] (first compound 0.003162 µM) it was 0.479; in experiment [4] (first compound 0.01 µM) it was 0.413; in experiment [4] (first compound 0.03162 µM), 0.239; in experiment [4] (first compound 0.1 µM) it was 0.16.

In the case of NCI-H1792, the relative viability in experiment [1] (first compound 0.001 µM) is 0.655; in experiment [1] (first compound 0.003162 µM), 0.646; in experiment [1] (first compound 0.01 µM) it was 0.707; in experiment [1] (first compound 0.03162 µM) it was 0.634; in experiment [1] (first compound 0.1 µM) it was 0.466; in experiment [2] (first compound 0.08 µM), 0.461. For the same cell line, the relative viability in experiment [2] (first compound 0.253 µM) turned out to be 0.448; in experiment [2] (first compound 2.53 µM) it was 0.382; in experiment [2] (first compound 8 µM), 0.398; in experiment [3] (first compound 0.08 µM), 0.675; in experiment [3] (first compound 0.253 µM), 0.596; in experiment [3] (first compound 2.53 µM) it was 0.56. In addition, the relative viability in experiment [3] (first compound 8 µM) turned out to be 0.506; in experiment [4] (first compound 0.001 µM) it was 0.291; in experiment [4] (first compound 0.003162 µM), 0.313; in experiment [4] (first compound 0.01 µM) it was 0.282; in experiment [4] (first compound 0.03162 µM), 0.24; in experiment [4] (first compound 0.1 µM) it was 0.199.

The values above are taken from the supplement of paper PMC10307832.
